In PMC11984388, “A brain-accessible peptide modulates stroke inflammatory response and neurotoxicity by targeting BDNF-receptor TrkB-T1 specific interactome” (Theranostics, 2025):
Residues, ends and D or L forms follow the SMILES beside them. *: point of attachment. Biotin = O=C1N[C@H]2[C@H](CS[C@H]2CCCCC(=O)*)N1

Columns and labels:
[1] = Peptide detection in brain cortex after photothrombotic ischemia; format: in vivo; conditions: 3 nmol/g i.v. 1 h after damage, male and female mice sacrificed 5 h post-stroke; Fluorescein Avidin D (Fig 5C)
Experimental: Vehicle (saline), Bio-TMyc or Bio-TT1Ct (3 nmol/g) were retro-orbitally injected in mice one hour after induction of photothrombotic damage or, alternatively, undamaged animals. In the first case, animals were sacrificed 5 h after damage induction while, the second group was sacrificed 30 min after peptide administration. The details of brain fixation and cryoprotection for peptide visualization and/or immunohistochemistry are provided in the Supplementary material. […]
Finally, the sa mple s were mounted in Prolong Diamond. The images were acquired using an inverted Zeiss LSM 710 laser confocal microscope (Jena, Germany) with a 40x or 63x Plan-Apochromatic oil immersion objective. Images corre spond to single se ctions and were normalized for eac h colour se para tely and process ed for presenta tion with ImageJ (NIH Image) and Fiji.
Peptide visualization and immunohistochemis tr y in brain cortex
For peptide visua liz ation in undamaged or damaged brains, animals were deeply anes thetized and intra cardially perfus ed with cold PBS and 4% paraformalde hyde in PBS. Brains were post-fixed in the sa m e fixative at 4°C for 24 h and cryoprote cted in 30% suc ros e for 48 h at 4°C. […]

[2] = tested on: Bio-sTT1Ct-interacting proteins of primary cortical cultures; assay: Pull-down with biotinylated peptide and label-free proteomics; format: binding, Rattus norvegicus; conditions: pull-down from neuronal-enriched cortical cultures; did not pass the selection criteria
Experimental: Cultures incubated with biotinylated peptides and treated as indicated were lysed at 4°C in NP-40 lysis buffer. Equal protein amounts were combined with streptavidin-agarose beads and incubated for 1.5 h for specifically-bounded protein isolation. Peptides and their interacting proteins were released by incubation at 50°C for 40 min in RIPA modified buffer. Peptide-interacting proteins were collected and subjected to LC-ESI-MS/MS (HR, medium gradient) protein identification using a mass spectrometer (Orbitrap Exploris 240) and Proteome Discoverer software for analysis (CNB Proteomics Facility, CSIC). Further procedure details are provided as Supplementary material.
Cultures were incubated with Bio-TMyc or Bio-sTT1Ct (30 min) before treatment with BDNF (100 ng/ml) or NMDA (100 µM) for 30 additional minutes, or left untreated (Figure 2A). […] Then, proteins interacting with Bio-TMyc and Bio-sTT1Ct were identified by a label free proteomic assay, obtaining a total of 4697 proteins for the three different biological conditions and four independent experiments analyzed. […] Therefore, we evaluated by a Principal Component Analysis (PCA) whether the interactome profiles obtained were different for both peptides (Figure 2B). […]
[…]

| SMILES | Time of peptide detection in brain cortex after administration [1] | Binding of RhoGDI (Arhgdia) to the peptide [2] |
| --- | --- | --- |
| CC[C@H](C)[C@H](NC(=O)[C@H](CC(C)C)NC(=O)[C@H](CCCCN)NC(=O)[C@H](CCC(N)=O)NC(=O)[C@H](CCC(=O)O)NC(=O)[C@H](CCC(=O)O)NC(=O)[C@H](C)NC(=O)[C@H](CCCNC(=N)N)NC(=O)[C@H](CCCNC(=N)N)NC(=O)[C@H](CCCNC(=N)N)NC(=O)[C@H](CCC(N)=O)NC(=O)[C@H](CCCNC(=N)N)NC(=O)[C@H](CCCNC(=N)N)NC(=O)[C@H](CCCCN)NC(=O)[C@H](CCCCN)NC(=O)[C@H](CCCNC(=N)N)NC(=O)CNC(=O)[C@H](Cc1ccc(O)cc1)NC(=O)CCCC[C@@H]1SC[C@@H]2NC(=O)N[C@@H]21)C(=O)N[C@@H](CO)C(=O)N[C@@H](CCC(=O)O)C(=O)N[C@@H](CCC(=O)O)C(=O)N[C@@H](CC(=O)O)C(=O)N[C@@H](CC(C)C)C(=O)N[C@@H](CC(C)C)C(=O)N[C@@H](CCCNC(=N)N)C(N)=O [Bio-TMyc, reference compound] (Biotin-YGRKKRRQRRRAEEQKLISEEDLLR-NH2) | at least 4 h |  |
| CC[C@H](C)[C@H](NC(=O)[C@H](CCCCN)NC(=O)[C@H](Cc1c[nH]cn1)NC(=O)[C@H](Cc1ccccc1)NC(=O)[C@H](CC(C)C)NC(=O)[C@@H](NC(=O)[C@H](Cc1ccccc1)NC(=O)[C@H](CCCNC(=N)N)NC(=O)[C@H](CCCNC(=N)N)NC(=O)[C@H](CCCNC(=N)N)NC(=O)[C@H](CCC(N)=O)NC(=O)[C@H](CCCNC(=N)N)NC(=O)[C@H](CCCNC(=N)N)NC(=O)[C@H](CCCCN)NC(=O)[C@H](CCCCN)NC(=O)[C@H](CCCNC(=N)N)NC(=O)CNC(=O)[C@H](Cc1ccc(O)cc1)NC(=O)CCCC[C@@H]1SC[C@@H]2NC(=O)N[C@@H]21)C(C)C)C(=O)N1CCC[C@H]1C(=O)N[C@@H](CC(C)C)C(=O)N[C@@H](CC(=O)O)C(=O)NCC(N)=O [Bio-sTT1Ct] (Biotin-YGRKKRRQRRRFVLFHKIPLDG-NH2) |  | very low binding |
